Key:
[1] = biological target: T1, Amine oxidase [flavin-containing] A (Homo sapiens, UniProt P21397); test: Inhibition of human MAO-A expressed in baculovirus infected BTI-TN-5B1-4 insect cells using p-tyramine as substrate assessed as hydrogen peroxide production by fluorimetric method
T1 sequence (P21397 whole entry): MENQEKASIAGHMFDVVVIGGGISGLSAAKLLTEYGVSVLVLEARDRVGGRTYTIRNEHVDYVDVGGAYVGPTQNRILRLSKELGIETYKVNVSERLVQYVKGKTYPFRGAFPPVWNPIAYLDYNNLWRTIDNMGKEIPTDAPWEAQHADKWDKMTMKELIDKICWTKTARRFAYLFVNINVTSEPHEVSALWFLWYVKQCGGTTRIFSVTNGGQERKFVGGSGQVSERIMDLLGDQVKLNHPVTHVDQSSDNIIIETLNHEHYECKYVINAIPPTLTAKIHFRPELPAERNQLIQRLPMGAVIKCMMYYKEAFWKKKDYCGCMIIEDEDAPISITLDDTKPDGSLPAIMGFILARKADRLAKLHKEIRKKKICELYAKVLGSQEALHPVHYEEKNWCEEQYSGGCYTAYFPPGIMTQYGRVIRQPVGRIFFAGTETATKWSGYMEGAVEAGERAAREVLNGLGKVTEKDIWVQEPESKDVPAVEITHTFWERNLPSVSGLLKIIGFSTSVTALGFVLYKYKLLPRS

[2] = biological target: T2, Amine oxidase [flavin-containing] B (Homo sapiens, UniProt P27338); test: biochemical; type: cell-based, BTI-TN-5B1-4
T2 sequence (P27338 whole entry): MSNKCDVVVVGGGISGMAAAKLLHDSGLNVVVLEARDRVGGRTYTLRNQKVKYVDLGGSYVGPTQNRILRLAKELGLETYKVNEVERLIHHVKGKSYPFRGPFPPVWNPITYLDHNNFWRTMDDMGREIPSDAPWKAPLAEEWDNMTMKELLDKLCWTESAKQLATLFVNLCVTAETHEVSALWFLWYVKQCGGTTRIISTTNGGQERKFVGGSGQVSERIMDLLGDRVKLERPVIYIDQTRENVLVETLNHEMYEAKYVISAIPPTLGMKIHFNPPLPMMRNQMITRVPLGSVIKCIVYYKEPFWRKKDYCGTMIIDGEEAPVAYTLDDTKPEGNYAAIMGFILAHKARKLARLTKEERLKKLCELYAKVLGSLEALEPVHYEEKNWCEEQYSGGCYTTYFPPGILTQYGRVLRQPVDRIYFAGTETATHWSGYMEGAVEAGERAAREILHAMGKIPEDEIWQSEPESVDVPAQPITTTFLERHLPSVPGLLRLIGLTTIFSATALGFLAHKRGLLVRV
Description: Inhibition of human MAO-B expressed in baculovirus infected BTI-TN-5B1-4 insect cells using p-tyramine as substrate assessed as hydrogen peroxide production by fluorimetric method

Homo sapiens = species on record: Homo sapiens; test: Selectivity index, ratio of IC50 for human MAO-B to IC50 for human MAO-A
[3] = biological target: T2, Amine oxidase [flavin-containing] B; test: Inhibition of human MAO-B expressed in baculovirus infected BTI-TN-5B1-4 insect cells using p-tyramine as substrate assessed as hydrogen peroxide production at 100 uM by fluorimetric method; settings: BTI-TN-5B1-4, human
[4] = biological target: T1, Amine oxidase [flavin-containing] A; test: Inhibition of human MAO-A expressed in baculovirus infected BTI-TN-5B1-4 insect cells using p-tyramine as substrate assessed as hydrogen peroxide production at 100 uM by fluorimetric method; settings: BTI-TN-5B1-4, human
[5] = biological target: T2, Amine oxidase [flavin-containing] B; test: Inhibition of human MAO-B expressed in baculovirus infected BTI-TN-5B1-4 insect cells using p-tyramine as substrate assessed as hydrogen peroxide production at 1 mM by fluorimetric method; settings: bti-tn-5b1-4, 1000 µM

Row | Compound | IC50 [1] [µM] | IC50 [2] [µM] | Ratio IC50 (Homo sapiens) | inhibition at 100 µM [3] [%] | inhibition at 100 µM [4] [%] | IC50 ([1]; bti-tn-5b1-4) [µM] | IC50 ([2]; bti-tn-5b1-4) [µM] | inhibition (INH) [5]
1 | Cc1sc(NN=C2CCCCC2)nc1-c1ccccc1 | 1.78 | 1.79 | 1.01 |  |  |  |  | 
2 | CC1CCC/C(=N\Nc2nc(-c3ccc4ccccc4c3)cs2)C1 (configuration not stated) | 1.94 | 10.8 | 5.56 |  |  |  |  | 
3 | Cc1sc(N/N=C2\CCCC2C)nc1-c1ccccc1 (configuration not stated) | 2.44 | 1.33 | 0.56 |  |  |  |  | 
4 | Cc1sc(N/N=C/c2ccc3c(c2)OCO3)nc1-c1ccccc1 | 8.63 | 6.57 | 0.76 |  |  |  |  | 
5 | C/C(=N\Nc1nc(-c2ccc3ccccc3c2)cs1)c1ccco1 | 1.77 | 2.29 | 1.3 |  |  |  |  | 
6 | C/C(=N\Nc1nc(-c2ccc3ccccc3c2)cs1)c1cccs1 | 3.73 | 14.5 | 3.85 |  |  |  |  | 
7 | CCCC/C(CC)=N\Nc1nc(-c2ccccc2)c(C)s1 | 4.13 | 4.78 | 1.16 |  |  |  |  | 
8 | C(=N\Nc1nc(-c2ccc3ccccc3c2)cs1)/c1ccco1 | 2.04 | 2.76 | 1.35 |  |  |  |  | 
9 | C(=N\Nc1nc(-c2ccc3ccccc3c2)cs1)/c1ccncc1 | 8.67 | 7.48 | 0.83 |  |  |  |  | 
10 | C/C(=N\Nc1nc(-c2ccc3ccccc3c2)cs1)c1cc2ccccc2oc1=O | 6.47 | 10.8 | 1.67 |  |  |  |  | 
11 | CCC/C(C)=N\Nc1nc(-c2ccc3ccccc3c2)cs1 | 1.81 | 3.11 | 1.72 |  |  |  |  | 
12 | C/C(=N\Nc1nc(-c2ccccc2)c(C)s1)c1ccc2ccccc2c1 |  |  |  | 40 | 40 |  |  | 
13 | Cc1sc(N/N=C2\CCCC(C)C2)nc1-c1ccccc1 (configuration not stated) | 3.63 | 2.88 | 0.76 |  |  |  |  | 
14 | C=CCC/C(C)=N\Nc1nc(-c2ccc3ccccc3c2)cs1 | 1.37 | 3.94 | 2.86 |  |  |  |  | 
15 | CCC(CC)=NNc1nc(-c2ccc3ccccc3c2)cs1 | 1.86 | 2.32 | 1.25 |  |  |  |  | 
16 | CCCCCC/C(C)=N\Nc1nc(-c2ccccc2)c(C)s1 | 3.91 | 3.75 | 1.04 |  |  |  |  | 
17 | Cc1sc(N/N=C/c2c[nH]c3ccccc23)nc1-c1ccccc1 | 3.12 | 1.4 | 0.45 |  |  |  |  | 
18 | CCCCC/C(C)=N\Nc1nc(-c2ccccc2)c(C)s1 | 3.69 | 6 | 1.64 |  |  |  |  | 
19 | C/C(=N\Nc1nc(-c2ccccc2)c(C)s1)c1nccs1 | 6.52 | 0.28 | 0.043 |  |  |  |  | 

Row | Compound | IC50 [1] [µM] | IC50 [2] [µM] | Ratio IC50 (Homo sapiens) | inhibition at 100 µM [3] [%] | inhibition at 100 µM [4] [%] | IC50 ([1]; bti-tn-5b1-4) [µM] | IC50 ([2]; bti-tn-5b1-4) [µM] | inhibition (INH) [5]
20 | CCCC/C(CC)=N\Nc1nc(-c2ccc3ccccc3c2)cs1 | 2.93 | 3.76 | 1.28 |  |  |  |  | 
21 | Cc1sc(N/N=C2\CCCCC2C)nc1-c1ccccc1 (configuration not stated) | 3.23 | 1.11 | 0.34 |  |  |  |  | 
22 | CC(C)=NNc1nc(-c2ccc3ccccc3c2)cs1 | 1.56 | 3.55 | 2.27 |  |  |  |  | 
23 | C/C(=N\Nc1nc(-c2ccccc2)c(C)s1)c1cccs1 | 2.67 | 2.34 | 0.9 |  |  |  |  | 
24 | Cc1sc(NN=C2CCCCCCC2)nc1-c1ccccc1 | 7.07 | 2.31 | 0.32 |  |  |  |  | 
25 | CC/C(C)=N\Nc1nc(-c2ccc3ccccc3c2)cs1 | 1.74 | 2.65 | 1.52 |  |  |  |  | 
26 | C/C(CC(C)C)=N/Nc1nc(-c2ccc3ccccc3c2)cs1 | 2.31 | 3.56 | 1.54 |  |  |  |  | 
27 | C/C(=N\Nc1nc(-c2ccc3ccccc3c2)cs1)C1CCCCC1 | 6.95 |  | > 14.3 | 40 |  |  |  | 
28 | C(=N\Nc1nc(-c2ccc3ccccc3c2)cs1)/c1cccs1 | 2.71 | 4.63 | 1.72 |  |  |  |  | 
29 | C(=N\Nc1nc(-c2ccc3ccccc3c2)cs1)/c1cccnc1 | 2.57 | 4.76 | 1.85 |  |  |  |  | 
30 | CCCCCC/C(C)=N\Nc1nc(-c2ccc3ccccc3c2)cs1 | 15.8 |  | > 6.25 | 40 |  |  |  | 
31 | CC/C(C)=N\Nc1nc(-c2ccccc2)c(C)s1 | 1.55 | 1.53 | 1 |  |  |  |  | 
32 | Cc1sc(NN=C2CCCC2)nc1-c1ccccc1 | 0.55 | 1.41 | 2.56 |  |  |  |  | 
33 | C/C(=N\Nc1nc(-c2ccccc2)c(C)s1)C1CCCCC1 | 7.65 | 6.14 | 0.83 |  |  |  |  | 
34 | CCC(CC)=NNc1nc(-c2ccccc2)c(C)s1 | 1.65 | 2.45 | 1.49 |  |  |  |  | 
35 | Cc1sc(N/N=C/c2cccc3ccccc23)nc1-c1ccccc1 |  |  |  | 40 | 40 |  |  | 
36 | CC(C)=NNc1nc(-c2ccccc2)c(C)s1 | 2.55 | 5.28 | 2.08 |  |  |  |  | 
37 | CC1CCC/C1=N\Nc1nc(-c2ccc3ccccc3c2)cs1 (configuration not stated) | 2.6 | 2.88 | 1.11 |  |  |  |  | 
38 | Cc1sc(NN=C2CCCCCC2)nc1-c1ccccc1 | 2.11 | 1.96 | 0.9 |  |  |  |  | 

The remaining lines, values ahead:

Row | IC50 [1] [µM] | IC50 [2] [µM] | Ratio IC50 (Homo sapiens) | inhibition at 100 µM [3] [%] | inhibition at 100 µM [4] [%] | IC50 ([1]; bti-tn-5b1-4) [µM] | IC50 ([2]; bti-tn-5b1-4) [µM] | inhibition (INH) [5] | Compound
39 | 3.38 | 3.05 | 0.9 |  |  |  |  |  | Cc1sc(N/N=C/c2cccs2)nc1-c1ccccc1
40 | 1.68 | 2.1 | 1.25 |  |  |  |  |  | C/C(=N\Nc1nc(-c2ccccc2)c(C)s1)c1ccco1
41 | 2 | 6.23 | 3.13 |  |  |  |  |  | C/C(=N\Nc1nc(-c2ccc3ccccc3c2)cs1)c1ccccc1
42 | 2.34 | 5.99 | 2.56 |  |  |  |  |  | C(=N\Nc1nc(-c2ccc3ccccc3c2)cs1)/c1c[nH]c2ccccc12
43 | 1.79 | 3.06 | 1.72 |  |  |  |  |  | Cc1sc(N/N=C/c2ccco2)nc1-c1ccccc1
44 |  |  | 0.66 |  |  | 3.9 | 2.52 |  | Cc1sc(NN=C2CCC(C)CC2)nc1-c1ccccc1 (configuration not stated)
45 | 6.97 | 8.85 | 1.27 |  |  |  |  |  | C=CCC/C(C)=N\Nc1nc(-c2ccccc2)c(C)s1
46 | 2.52 | 2.31 | 0.9 |  |  |  |  |  | CCC/C(C)=N\Nc1nc(-c2ccccc2)c(C)s1
47 | 16.4 | 22.9 | 1.41 |  |  |  |  |  | C(=N\Nc1nc(-c2ccc3ccccc3c2)cs1)/c1cccc2ccccc12
48 | 2.4 | 2.78 | 1.16 |  |  |  |  |  | C/C(CC(C)C)=N/Nc1nc(-c2ccccc2)c(C)s1
49 | 9.18 | 3.02 | 0.33 |  |  |  |  |  | C/C(=N\Nc1nc(-c2ccccc2)c(C)s1)c1cc2ccccc2oc1=O
50 | 2.24 | 2.23 | 1 |  |  |  |  |  | C/C(=N\Nc1nc(-c2ccccc2)c(C)s1)c1ccccc1
51 |  |  |  | 40 | 40 |  |  |  | C/C(=N\Nc1nc(-c2ccc3ccccc3c2)cs1)c1ccc2ccccc2c1
52 | 2.45 | 16 | 6.67 |  |  |  |  |  | CCCCC/C(C)=N\Nc1nc(-c2ccc3ccccc3c2)cs1
53 | 5.92 |  | > 16.7 | 40 |  |  |  |  | C(=N\Nc1nc(-c2ccc3ccccc3c2)cs1)/c1ccc2c(c1)OCO2
54 | 2.29 | 2.31 | 1.01 |  |  |  |  |  | Cc1sc(N/N=C2\CCC(C)C2)nc1-c1ccccc1 (configuration not stated)
55 | 8.29 | 1.37 | 0.16 |  |  |  |  |  | Cc1sc(N/N=C/c2ccncc2)nc1-c1ccccc1
56 |  |  |  |  |  |  |  | Not Active | O=C(NCCN1CCOCC1)c1ccc(Cl)cc1 [MOCLOBEMIDE]
57 | 1.91 | 3.49 | 1.82 |  |  |  |  |  | CC1CC/C(=N\Nc2nc(-c3ccc4ccccc4c3)cs2)C1 (configuration not stated)
58 | 2.39 | 0.88 | 0.37 |  |  |  |  |  | C/C(=N\Nc1nc(-c2ccccc2)c(C)s1)c1ccccn1
59 | 1.83 | 2.22 | 1.22 |  |  |  |  |  | Cc1sc(N/N=C/c2cccnc2)nc1-c1ccccc1

— ChEMBL document CHEMBL3217581, “Synthesis and selective inhibition of human monoamine oxidases of a large scaffold of (4,5-substituted-thiazol-2-yl)hydrazones” (Medchemcomm, 2010)
